{
  "source": "patent US20230111350A1",
  "about": "“Opthalmic Compositions for Treating Coronaviruses” (priority 2020, published 2023)",
  "origin": "cited, not measured here",
  "key": {"[1]": {"details": "systemic administration; dependent on daily dose by weight"}, "[2]": {"details": "relative to chloroquine"}, "SARS-CoV-2": {"system": "SARS-CoV-2", "details": "relative to chloroquine"}},
  "data": [
    {"smiles": "CCN(CC)CCCC(C)Nc1ccnc2cc(Cl)ccc12", "note": "(stereo not shown) [chloroquine]", "values": [
      {"measurement": "toxicity in ARPE-19 cells", "setting": "ARPE-19", "result": "vacuole formation and cell death"}
    ]},
    {"smiles": "Oc1c(I)cc(Cl)c2cccnc12", "note": "[clioquinol]", "values": [
      {"measurement": "effect on chloroquine-associated toxicity in ARPE-19 cells", "setting": "ARPE-19; co-treatment with chloroquine, zinc-dependent, by reversing autophagy arrest", "result": "attenuated the chloroquine-associated toxicity"}
    ]},
    {"smiles": "CCN(CCO)CCCC(C)Nc1ccnc2cc(Cl)ccc12", "note": "(stereo not shown) [hydroxychloroquine]", "values": [
      {"measurement": "prevalence of retinal toxicity", "setting": "[1]", "result": "≤ 7.5", "unit": "%"},
      {"measurement": "percentage of patients testing positive for COVID-19", "setting": "COVID-19; after 6 days, 600 mg/day oral, untreated 90%", "result": 25, "unit": "%"},
      {"measurement": "viral load", "setting": "COVID-19; oral administration", "result": "strong reduction in viral load"},
      {"measurement": "toxicity profile", "setting": "[2]", "result": "reduced toxicity profile"},
      {"measurement": "potency at inhibiting SARS-CoV-2 in vitro", "setting": "SARS-CoV-2", "result": "more potent than chloroquine"}
    ]}
  ]
}
